Measured values reported in patent US7399472B2, “Vaccines” (Smithkline Beecham Biologicals, priority 1999, dated 2008).

Experiments:
[1] = test system: erythrocytes; assay: Haemolysis assay for saponins; details: substantially pure samples
Method: Fresh blood from guinea pigs is washed with phosphate buffered saline (PBS) 3 times in a desk-top centrifuge. After resuspension to the original volume the blood is further diluted 10 fold in PBS. • 2. 50 μl of this blood suspension is added to 800 μl of PBS containing two-fold dilutions of surfactant or saponin. • 3. After 8 hours the haemolysis is assessed visually or by measuring the optical density of the supernatant. The presence of a red supernatant, which absorbs light at 570 nm indicates the presence of haemolysis. • 4. The results are expressed as the concentration of the first saponin dilution at which hemolysis no longer occurs.
For the purposes of his invention the saponin adjuvant preparation is haemolytic if it lyses the erythrocytes at a concentration of less than 0.1%. As means of reference, substantially pure samples of QuilA, QS21, QS7.

[2] = test system: Lipo-OspA; assay type: in vivo, Balb/c mice; details: 14 days after nasal boost with 5 μg lipo-OspA; 20 μg CpG 1001 and/or 5 μg QS21; compared with PBS
[3] = test system: influenza virus; design: species or system Balb/c mice; details: mouse, in vivo

Compound | haemolytic saponin as defined in this assay [1] | intranasal boosting of systemic antibodies to Lipo-OspA (OspA specific IgG and LA2 titres) [2] | intranasal boosting of IgG or HAI antibodies to Flu strains [3]
C[C@@H]1CC[C@@]2(OC1)O[C@H]1[C@@H](O)[C@H]3[C@@H]4CC[C@H]5C[C@@H](O[C@@H]6O[C@H](CO)[C@H](O[C@@H]7O[C@H](CO)[C@@H](O)[C@H](O[C@@H]8OC[C@@H](O)[C@H](O)[C@H]8O)[C@H]7O[C@@H]7O[C@H](CO)[C@H](O)[C@H](O[C@@H]8O[C@H](CO)[C@@H](O)[C@H](O)[C@H]8O)[C@H]7O)[C@H](O)[C@H]6O)[C@H](O)C[C@]5(C)[C@H]4CC[C@]3(C)[C@H]1[C@@H]2C [Digitonin] | haemolytic | – | –
CC1(C)[C@@H](O[C@H]2O[C@H](C(=O)O)[C@@H](O)[C@H](O)[C@H]2O[C@@H]2O[C@H](C(=O)O)[C@@H](O)[C@H](O)[C@H]2O)CC[C@]2(C)[C@H]3C(=O)C=C4[C@@H]5C[C@@](C)(C(=O)O)CC[C@]5(C)CC[C@@]4(C)[C@]3(C)CC[C@@H]12 [glycyrrhizic acid] | non haemolytic | – | –
QS21 | haemolytic | improve significantly | do not improve
β-escin | haemolytic | – | –
